Measurements as given in PubChem BioAssay AID1963844 (Molecular Pharmacology Branch, DTP, NCI, 2024).

Tested on: 422866-222-R5-J1-PDC complex spheroid viability
Test: Anticancer human tumor 422866-222-R5-J1-PDC patient-derived pancreatic adenocarcinoma cell line growth inhibition [POLQ]
Details: for IC50: curve of first compound; for viability, T/C: stronger effect = lower value
How it was run: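 Patient-derived tumour cells were co-cultured with HUVEC and mesenchymal stem cells as multicellular spheroids at 37 °C. They were treated with POLQ inhibitors (novobiocin, ART-558, RP6685) alone or combined with other agents. Top concentrations were at or near clinical Cmax (otherwise 10 microM; SN-38 at 1 microM), decreasing in half-log steps.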

[1] = second compound 0.0316 µM, first compound 0.0316 µM
[2] = second compound 0.0316 µM, first compound 0.1 µM
[3] = second compound 0.0316 µM, first compound 0.316 µM
[4] = second compound 0.0316 µM, first compound 1 µM
[5] = second compound 0.0316 µM, first compound 3.16 µM
[6] = second compound 0.0316 µM, first compound 10 µM
[7] = second compound 0.1 µM, first compound 0.0316 µM
[8] = second compound 0.1 µM, first compound 0.1 µM
[9] = second compound 0.1 µM, first compound 0.316 µM
[10] = second compound 0.1 µM, first compound 1 µM
[11] = second compound 0.1 µM, first compound 3.16 µM
[12] = second compound 0.1 µM, first compound 10 µM
[13] = second compound 0.316 µM, first compound 0.0316 µM
[14] = second compound 0.316 µM, first compound 0.1 µM
[15] = second compound 0.316 µM, first compound 0.316 µM
[16] = second compound 0.316 µM, first compound 1 µM
[17] = second compound 0.316 µM, first compound 3.16 µM
[18] = second compound 0.316 µM, first compound 10 µM
[19] = second compound 1 µM, first compound 0.0316 µM
[20] = second compound 1 µM, first compound 0.1 µM
[21] = second compound 1 µM, first compound 0.316 µM
[22] = second compound 1 µM, first compound 1 µM
[23] = second compound 1 µM, first compound 3.16 µM
[24] = second compound 1 µM, first compound 10 µM
[25] = second compound 3.16 µM, first compound 0.0316 µM
[26] = second compound 3.16 µM, first compound 0.1 µM
[27] = second compound 3.16 µM, first compound 0.316 µM
[28] = second compound 3.16 µM, first compound 1 µM
[29] = second compound 3.16 µM, first compound 3.16 µM
[30] = second compound 3.16 µM, first compound 10 µM
[31] = second compound 10 µM, first compound 0.0316 µM
[32] = second compound 10 µM, first compound 0.1 µM
[33] = second compound 10 µM, first compound 0.316 µM
[34] = second compound 10 µM, first compound 1 µM
[35] = second compound 10 µM, first compound 3.16 µM
[36] = second compound 10 µM, first compound 10 µM
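Further: spheroids exposed to compounds for one week before readout.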
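Wherever viability, T/C is given: percent of DMSO vehicle wells luminescence so 100% = untreated viability.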

## CNCc1ccc(-c2[nH]c3cc(F)cc4c3c2CCNC4=O)cc1 + Nc1ccc(C#CCN(C(=O)Cc2ncc(C(F)(F)F)cc2C(F)(F)F)c2ccc(F)cc2)nn1
Second compound 0.0316 µM
  IC50: > 10 µM
Second compound 0.1 µM
  IC50: > 10 µM
Second compound 0.316 µM
  IC50: > 10 µM
Second compound 1 µM
  IC50: > 10 µM
Second compound 3.16 µM
  IC50: > 10 µM
Second compound 10 µM
  IC50: > 10 µM
[1]
  viability, T/C: 78.7%
[2]
  viability, T/C: 93.6%
[3]
  viability, T/C: 77.7%
[4]
  viability, T/C: 104%
[5]
  viability, T/C: 78.8%
[6]
  viability, T/C: 76.6%
[7]
  viability, T/C: 106%
[8]
  viability, T/C: 87.5%
[9]
  viability, T/C: 92.4%
[10]
  viability, T/C: 107%
[11]
  viability, T/C: 80.6%
[12]
  viability, T/C: 82.8%
[13]
  viability, T/C: 87.4%
[14]
  viability, T/C: 109%
[15]
  viability, T/C: 97.1%
[16]
  viability, T/C: 101%
[17]
  viability, T/C: 72.1%
[18]
  viability, T/C: 79.5%
[19]
  viability, T/C: 89.4%
[20]
  viability, T/C: 89.9%
[21]
  viability, T/C: 93%
[22]
  viability, T/C: 91.9%
[23]
  viability, T/C: 73.5%
[24]
  viability, T/C: 63%
[25]
  viability, T/C: 100%
[26]
  viability, T/C: 96.4%
[27]
  viability, T/C: 105%
[28]
  viability, T/C: 89.7%
[29]
  viability, T/C: 87.4%
[30]
  viability, T/C: 81.9%
[31]
  viability, T/C: 96.1%
[32]
  viability, T/C: 109%
[33]
  viability, T/C: 89.8%
[34]
  viability, T/C: 64.7%
[35]
  viability, T/C: 79%
[36]
  viability, T/C: 69%

## Cn1ncnc1[C@H]1c2n[nH]c(=O)c3cc(F)cc(c23)N[C@@H]1c1ccc(F)cc1 + Nc1ccc(C#CCN(C(=O)Cc2ncc(C(F)(F)F)cc2C(F)(F)F)c2ccc(F)cc2)nn1
Second compound 0.0316 µM
  IC50: > 0.1 µM
Second compound 0.1 µM
  IC50: > 0.1 µM
Second compound 0.316 µM
  IC50: > 0.1 µM
Second compound 1 µM
  IC50: > 0.1 µM
Second compound 3.16 µM
  IC50: > 0.1 µM
Second compound 10 µM
  IC50: > 0.1 µM
Second compound 0.0316 µM, first compound 0.000316 µM
  viability, T/C: 91.5%
Second compound 0.0316 µM, first compound 0.001 µM
  viability, T/C: 115%
Second compound 0.0316 µM, first compound 0.00316 µM
  viability, T/C: 80.7%
Second compound 0.0316 µM, first compound 0.01 µM
  viability, T/C: 104%
[1]
  viability, T/C: 88.3%
[2]
  viability, T/C: 75.7%
Second compound 0.1 µM, first compound 0.000316 µM
  viability, T/C: 101%
Second compound 0.1 µM, first compound 0.001 µM
  viability, T/C: 106%
Second compound 0.1 µM, first compound 0.00316 µM
  viability, T/C: 110%
Second compound 0.1 µM, first compound 0.01 µM
  viability, T/C: 85.2%
[7]
  viability, T/C: 81.7%
[8]
  viability, T/C: 74.1%
Second compound 0.316 µM, first compound 0.000316 µM
  viability, T/C: 112%
Second compound 0.316 µM, first compound 0.001 µM
  viability, T/C: 108%
Second compound 0.316 µM, first compound 0.00316 µM
  viability, T/C: 86.1%
Second compound 0.316 µM, first compound 0.01 µM
  viability, T/C: 91.6%
[13]
  viability, T/C: 92.7%
[14]
  viability, T/C: 75.2%
Second compound 1 µM, first compound 0.000316 µM
  viability, T/C: 109%
Second compound 1 µM, first compound 0.001 µM
  viability, T/C: 93.6%
Second compound 1 µM, first compound 0.00316 µM
  viability, T/C: 98.8%
Second compound 1 µM, first compound 0.01 µM
  viability, T/C: 98.8%
[19]
  viability, T/C: 77%
[20]
  viability, T/C: 87.9%
Second compound 3.16 µM, first compound 0.000316 µM
  viability, T/C: 115%
Second compound 3.16 µM, first compound 0.001 µM
  viability, T/C: 111%
Second compound 3.16 µM, first compound 0.00316 µM
  viability, T/C: 98.1%
Second compound 3.16 µM, first compound 0.01 µM
  viability, T/C: 94.9%
[25]
  viability, T/C: 89.1%
[26]
  viability, T/C: 92.4%
Second compound 10 µM, first compound 0.000316 µM
  viability, T/C: 101%
Second compound 10 µM, first compound 0.001 µM
  viability, T/C: 111%
Second compound 10 µM, first compound 0.00316 µM
  viability, T/C: 108%
Second compound 10 µM, first compound 0.01 µM
  viability, T/C: 95.7%
[31]
  viability, T/C: 86.1%
[32]
  viability, T/C: 77.9%

## O=C(c1cc(Cc2n[nH]c(=O)c3ccccc23)ccc1F)N1CCN(C(=O)C2CC2)CC1 + Nc1ccc(C#CCN(C(=O)Cc2ncc(C(F)(F)F)cc2C(F)(F)F)c2ccc(F)cc2)nn1
Second compound 0.0316 µM
  IC50: > 10 µM
Second compound 0.1 µM
  IC50: > 10 µM
Second compound 0.316 µM
  IC50: > 10 µM
Second compound 1 µM
  IC50: > 10 µM
Second compound 3.16 µM
  IC50: > 10 µM
Second compound 10 µM
  IC50: > 10 µM
[1]
  viability, T/C: 86.6%
[2]
  viability, T/C: 109%
[3]
  viability, T/C: 88.2%
[4]
  viability, T/C: 97.9%
[5]
  viability, T/C: 72.8%
[6]
  viability, T/C: 73.6%
[7]
  viability, T/C: 91.7%
[8]
  viability, T/C: 95.8%
[9]
  viability, T/C: 97.5%
[10]
  viability, T/C: 93.8%
[11]
  viability, T/C: 80.2%
[12]
  viability, T/C: 61.4%
[13]
  viability, T/C: 101%
[14]
  viability, T/C: 103%
[15]
  viability, T/C: 99.1%
[16]
  viability, T/C: 102%
[17]
  viability, T/C: 76.2%
[18]
  viability, T/C: 65.8%
[19]
  viability, T/C: 105%
[20]
  viability, T/C: 90.1%
[21]
  viability, T/C: 105%
[22]
  viability, T/C: 84.5%
[23]
  viability, T/C: 70.2%
[24]
  viability, T/C: 53.7%
[25]
  viability, T/C: 112%
[26]
  viability, T/C: 109%
[27]
  viability, T/C: 111%
[28]
  viability, T/C: 90.3%
[29]
  viability, T/C: 84.2%
[30]
  viability, T/C: 65.9%
[31]
  viability, T/C: 96.8%
[32]
  viability, T/C: 104%
[33]
  viability, T/C: 131%
[34]
  viability, T/C: 115%
[35]
  viability, T/C: 91.9%
[36]
  viability, T/C: 68.6%
